In patent publication US20250177392A1, “BROAD SPECTRUM INHIBITORS OF CYTOMEGALOVIRUS” (MICROBIOTIX, INC., priority 2022, published 2025):

Legend:
AD169^R = experiment: Virus pre-incubation / washout study; assay type: cell-based, Human cytomegalovirus; settings: virus pre-incubated, compound washed out; MBX-4992 10 μM, heparin 50 μg/ml
Protocol: (B) Based on the schematic, AD169^R (MOI 0.2) was pre-incubated with DMSO, MBX-4992, or heparin for one hour before being added to NHDF cells. Virus/compound mix was washed out after 30 minutes as indicated and either unchanged or replaced with media containing DMSO, MBX-4992, or heparin. Virus infection was quantified at 24 hpi GFP fluorescence. Percent infection was normalized to untreated cells.
NHDF cells (10^4) plated overnight in a 96-well plate were incubated at 4° C. for 30 minutes with AD169^R CMV virus pretreated with MBX-4992 (10 μM), Heparin (50 μg/mL) or DMSO for 1 hour at room temperature (in triplicate). For 2/3rd of the samples, media was aspirated and half of the wells received DMSO media, regardless of which drug the virus was exposed to, or MBX-4992 (10 μM), or Heparin (50 μg/mL) overnight. At 18 hpi, the cells were fixed with 4% paraformaldehyde, stained with a rabbit anti-IE1 antibody followed by an anti-rabbit Alexa 647, and analyzed using the Celigo cytometer. The DMSO condition that was not aspirated post binding was set as 100% infection.
To further characterize the mechanism of action, pre-incubation/washout studies were performed using AD169^R and MBX-4992. […] At 18 hpi, cells were immunostained with an anti-IE1 antibody as a readout for infection and quantified using a Celigo cytometer. […]

AD169 CMV virus = experiment: Time-of-addition assay; assay type: cell-based, Human cytomegalovirus; settings: 10 μM added -60 to 90 minutes post-infection, infection quantified at 24 hpi
Protocol: FIG. 5A-C are graphs showing that NAPA compounds target an early, post-attachment step of the CMV virus. (A) MBX-4992 (10 μM) was added along a time course post infection with AD169 (MOI 0.2) from −60 to 90 minutes after virus addition to NHDF fibroblasts. Infection at 24 hours was quantified after an immunostain with an anti-IE1 antibody. Percent infection was normalized to untreated cells where media was added either-60 or 90 minutes after virus addition. A schematic of the experimental design is shown.
NHDF cells (10^4) were plated in a 96-well plate overnight. A working stock of MBX-4992 at 20 μM was used as a 2×to achieve a final concentration of 10 μM. […] At […], the cells were fixed with 4% paraformaldehyde, stained with a rabbit anti-IE1 antibody followed by an anti-rabbit Alexa 647, and analyzed using the Celigo cytometer. Using the −60 DMSO treated cells as 100% infectivity, the percent relative to maximum infection was determined from cells treated with drug at different time points.
To further analyze the step of CMV entry targeted by NAPA compound MBX-4992, a time of addition assay was performed. MBX-4992 (10 μM) was added at various times during […] infection (−60, 0, 15, 30, 60, and 90 minutes post-infection (mpi)) with AD169 CMV virus and viral infection was quantified at 24 hpi. […]

CYP3A4 = CYP3A4 (Homo sapiens, UniProt P08684); experiment: CYP3A4 inhibition at 10 μM; assay type: in vitro ADME; settings: % inhibition of CYP3A4 at 10 μM
Sequence of CYP3A4 (P08684 whole entry, species assumed): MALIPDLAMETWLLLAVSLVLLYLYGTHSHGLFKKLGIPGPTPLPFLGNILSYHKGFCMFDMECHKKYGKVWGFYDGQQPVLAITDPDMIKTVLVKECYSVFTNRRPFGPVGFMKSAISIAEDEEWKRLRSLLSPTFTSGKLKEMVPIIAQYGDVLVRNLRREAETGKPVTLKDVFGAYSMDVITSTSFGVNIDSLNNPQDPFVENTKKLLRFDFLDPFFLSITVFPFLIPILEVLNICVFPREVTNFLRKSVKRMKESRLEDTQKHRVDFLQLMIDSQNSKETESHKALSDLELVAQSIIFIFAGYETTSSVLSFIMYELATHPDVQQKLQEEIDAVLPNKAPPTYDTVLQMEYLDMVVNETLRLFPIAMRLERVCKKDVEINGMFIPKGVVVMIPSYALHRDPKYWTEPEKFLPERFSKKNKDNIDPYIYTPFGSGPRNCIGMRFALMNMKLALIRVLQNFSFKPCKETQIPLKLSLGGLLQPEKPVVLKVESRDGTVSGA

EBV Akata = experiment: Herpes virus panel neutralization, EBV; assay type: cell-based, Epstein-Barrvirus
Protocol: To determine the specificity of MBX-4992, additional neutralization experiments were conducted using a panel of herpes viruses performed in the presence of MBX-4992. […] Collectively, the antiviral activity of MBX-4992 is equivalent to that of GCV indicating specific inhibition of CMV replication.

[1] = test system: TR, Towne, and TB40/E strains; experiment: CMV infection assay of MBXC-4336 with further strains; assay type: cell-based, Human cytomegalovirus; settings: NHDF cells, 24 hpi, IE1 (FIG. 11F-H)
Protocol: HCMV strains AD169 (A), TB40/E Flag YFP (B), Towne (C and G), TR (D and F), Merlin (E), and TB40/E (H) infection of NHDF cells pre-treated with DMSO and 0, 1, 5, or 20 μM MBX-4992 or MBXC-4336, respectively, were assessed at 24 hpi based on IE1 expression by anti-IE1 immunostain. TB40/E (I) (MOI 0.25) and AD169^R (J) (MOI 0.25) infection of HTR-svNeo cells treated with DMSO and 0, 1, 5, or 20 μM MBX-4992 were assessed at 24 hpi based on IE1 expression by anti-IE1 immunostain. The % infection was determined using DMSO-treated as 100% infection. The error bars represent values in triplicate. Statistical tests were performed using ordinary one-way ANOVA with multiple comparisons to DMSO treated cells as a control and a Dunnett's post-test *, p<0.05; **, p<0.01; ****, p<0.0001.
Fibroblasts and ARPE-19 cells (10^4) were plated in 96-well plates (Greiner, Monroe, NC). […] At 18 hours post infection (hpi) cells were stained using a rabbit anti-IE1 antibody followed by an anti-rabbit Alexa 647 and measured using a Celigo Cytometer (Parsons et al., Antiviral Res., 193:105124 (2021); Stein et al., Nat. Commun., 10:2699 (2019)). Using the DMSO treated cells as 100% infection, the percent infection of the NAPA compound-treated cells was determined. […]

Compound	decrease of infection after washing out (AD169^R) [%]	inhibition of infection by time of addition (AD169 CMV virus)	CYP (CYP3A4) [%]	SI (EBV Akata)	IC50 (EBV Akata; human gammaherpesvirus 4) [µM]	effectiveness against further strains [1]
Cc1nc(Nc2ccc(NC(=O)c3ccco3)cc2)cc(N2CCCC2)n1 [MBX-4992]	~25	most effective at preventing infection when introduced prior to and within 30 mpi	<10	>3	30.9	–
Cc1nc(Nc2cccc(NC(=O)c3ccco3)c2)cc(N2CCCCC2)n1 [MBXC-4336]	–	–	–	–	–	effectiveness of MBXC-4336 was validated
